In general, MIC refers to the lowest concentration found to suppress growth.

The test system of series [1] is Candida albicans (ATCC 90028). The following applies: C. albicans; cited from earlier work.
The subject of the next series is C. glabrata (ATCC 2001). The following applies: cited from earlier work.
For series [2] the following is noted: cited from earlier work.
For series [3] the following is noted: ingestion of a 200 mg tablet, microcrystalline suspension in oil-wax base; cited from earlier work.
Series [4] concerns most gram positive organisms. The following applies: cited from earlier work.
Series [5] relates to S. aureus. Description: Rapid MIC prediction with lycopene/HSA assay (UV-Vis absorbance after 30 min incubation). The following applies: Staphylococcus aureus, 0.5 h. The class given is cell-based. Here is the method: (§1) The present lycopene/HSA complexes were used to characterize the minimum inhibitory concentration (MIC) of antimicrobial compounds. A lycopene/HSA complex, prepared as described herein, was mixed with a series of samples that all had the same initial amount of S. aureus (200 CFU/mL of PHS), and which was incubated with a varying amount of vancomycin for 30 minutes. […] Upon the addition of the lycopene/HSA assay, aggregation of the lycopene/HSA increased in a manner that scales with S. aureus concentration (and thus on the vancomycin concentration). These changes were characterized via the changes in the UV-Vis spectrum, depicted at the bottom in FIG. 23. The chart on the top in FIG. 23 depicts the absorbance at 600 nm for these samples after another 18 hours of incubation. This absorbance was dominated by the pathogen concentration after 18 hours of growth.
(§2) FIG. 23. Rapid prediction of the MIC of S. aureus at 200 CFU/mL. […] Lycopene (1.125 mM), fucoxanthin (0.375 mM), additional vancomycin (so as to maintain the same concentration of vancomycin) and additional 3440 μl PBS (to bring the total volume to 6 ml) was added and the UV-Vis absorbance was measured. […] The chart on the top depicts the absorbance at 600 nm after 18 hour incubation at 37° C. […]

For series [6], the system named is S. aureus. Kind of series: MIC by absorbance at 600 nm after 18 hour incubation. The class given is cell-based. The following applies: Staphylococcus aureus; absorbance at 600 nm after 18 hour incubation at 37° C.; read-out: actual MIC (break point). The method, then:
as §1, §2

SMILES strings stand for the structures. Values after ≈ are worked out from the molar mass of the structure shown.

With `C[C@@H]1[C@H](O)[C@@H](C)/C=C/C=C/C=C/C=C/C=C/C=C/C=C/[C@H](O[C@@H]2O[C@H](C)[C@@H](O)[C@H](N)[C@@H]2O)C[C@@H]2O[C@](O)(C[C@@H](O)C[C@@H](O)[C@H](O)CC[C@@H](O)C[C@@H](O)CC(=O)O[C@H]1C)C[C@H](O)[C@H]2C(=O)O` [Amphotericin B], the “previously reported minimum inhibitory concentration MIC” value (in series [1]; in the series on C. glabrata (ATCC 2001)) was “about 0.5 μg/mL” in each case.

On to `CC(C)/N=c1\cc2n(-c3ccc(Cl)cc3)c3ccccc3nc-2cc1Nc1ccc(Cl)cc1` [Clofazimine], for which, in series [2], the water solubility entry is listed as “not water soluble”. Further, in series [3], the peak plasma concentration was 0.41 µg/mL. Also, in series [4], the MIC entry is given as “about 0.4 μg/mL”.

Take `CN[C@H](CC(C)C)C(=O)N[C@H]1C(=O)N[C@@H](CC(N)=O)C(=O)N[C@H]2C(=O)N[C@H]3C(=O)N[C@H](C(=O)N[C@H](C(=O)O)c4cc(O)cc(O)c4-c4cc3ccc4O)[C@H](O)c3ccc(c(Cl)c3)Oc3cc2cc(c3O[C@@H]2O[C@H](CO)[C@@H](O)[C@H](O)[C@H]2O[C@H]2C[C@](C)(N)[C@H](O)[C@H](C)O2)Oc2ccc(cc2Cl)[C@H]1O` [vancomycin]: the MIC in the series with S. aureus [5] (read-out: predicted MIC) is roughly 0.6 µg/mL (≈ 0.414 µM); with S. aureus [5] (read-out: predicted MIC (break point)) it was 200 µg/mL (≈ 138 µM); in the series on S. aureus [6], 0.2 µg/mL (≈ 0.138 µM).
